In patent US9701959B2, “High throughput screen for biologically active polypeptides” (Invenra Inc., priority 2012, dated 2017):
Ends that are not written are not given here.

These compounds were tested on E. coli MG1655 (assay: Minimal Inhibitory Concentration (MIC) in E. coli, Alamar Blue, hit validation). Details: MIC at 18 hrs in E. coli; overnight at 35° C., triplicate.
Format: cell-based
Description: Equipment: • Absorption and fluorescence plate reader—Tecan Safire • CO2 Incubator
Reagents: • Six chemically synthesized peptides—Biosynthesis Inc. • E. coli MG1655 (ATCC) • LB media (Sigma-Aldrich) • Alamar Blue assay kit (Life Tech)
3) Start an overnight culture of E. coli MG1655 in 5 mL of LB and grow at 37° C. with shaking at 200 rpm. 4) In the morning dilute overnight culture to OD600=0.00075 in 10 mL LB+1 mL Alamar Blue Stain. 5) Make seven (7), 1:2 serial dilutions of each peptide starting at […] in a final volume of 70 μL of PBS. 6) Add 20 μL of serial dilution of peptides in triplicate to a white small volume 96-well plate. Add 20 μl of PBS alone to the 8th well. 7) Add 120 μL of E. coli/Alamar blue dilution to each of the test wells. 8) Incubate overnight (18 hrs) at 35° C.

Compound	Ave MIC [µM]
CC[C@H](C)[C@H](NC(=O)CN)C(=O)NCC(=O)N[C@@H](C)C(=O)N[C@H](C(=O)N[C@@H](CC(C)C)C(=O)N[C@@H](CCCCN)C(=O)N[C@H](C(=O)N[C@@H](CC(C)C)C(=O)N[C@H](C(=O)N[C@H](C(=O)NCC(=O)N[C@@H](CC(C)C)C(=O)N1CCC[C@H]1C(=O)N[C@H](C(=O)N[C@@H](CC(C)C)C(=O)N[C@H](C(=O)N[C@@H](CO)C(=O)N[C@@H](Cc1c[nH]c2ccccc12)C(=O)N[C@H](C(=O)N[C@@H](CCCCN)C(=O)N[C@@H](CO)C(=O)N[C@@H](CCCCN)C(=O)N[C@@H](CCCNC(=N)N)C(=O)N[C@@H](CCC(N)=O)C(=O)N[C@@H](CCCCN)C(=O)O)[C@@H](C)CC)[C@@H](C)CC)[C@@H](C)O)[C@@H](C)O)[C@@H](C)O)C(C)C)C(C)C [Hit 1]	12
GIGAIAKVLSTGLPRLISWIKGKRIR [Cont 2, reference compound]	15
GIGALIKVLTTGLPMLISWIKRKRNK [Hit 2]	14
GIGATVKVLSTGLRFLISWIKRKRKY [Cont 1, reference compound]	>30
GIGAVLKVLGTGLPALISWIKFKRFP [Cont 3, reference compound]	>30
GIGAWTKVLTTGLPGLISWIKRKRLR [Hit 3]	20

What follows are compounds tested on NF-κB-Jurkat cells (GFP reporter construct for NF-kappa-B) (assay: Single bead bioactivity testing in 1536-well microtiter plate (GFP fluorescence)). Details: 1 and 2 beads per well, 4,800 cells per well, 18 hours at 37 C.
Format: cell-based
Description: Equipment: • Cell culture incubator (Fisher Scientific) • Microplate reader (Tecan Safire) • Black, clear bottom, 1536-well microtiter plate (Corning)
1) Dilute NF-κB-Jurkat cells to 4×10^6 cells/ml using the supplemented RPMI 1640 growth media.
2) Prepare the 1536 well for the following layout:
3) Add 7. μl of supplemented RMPI 1640 media to all wells labeled “M” in the plate layout above.
4) Create the following cell master mix:
5) Add 3 μl of the cell master mix to the wells labeled “A” and “B” so that when the test and control beads are added the final number of cells is 4,800 per well.
6) Dilute the TNF-bead and Control-beads in supplemented RPMI 1640 to 1-2 beads per 2 μl.
7) Add 2 μl of TNF-beads to the wells of the plate labeled “A” and add 2 μl of the control-beads to the wells of the plate labeled “B”.
8) Incubate the plate for 18 hours at 37 C and 5% CO2.
9) Measure the GFP fluorescence of each well using the Tecan Safire plate reader.
The experiment was performed to determine if a single bead could be used to screen for activity of a protein that induces a cell-reporter in a microtiter plate. 1536 well plates were used to decrease the volume in which the assay was performed. Control beads consisting of a scFv antibody fragment were generated using the same protocol as the tested TNF-beads. The control beads were used to establish a baseline signal for the assay. […]

Compound	GFP signal relative to baseline (control beads)
TNF-beads: His-tag, spacer, TEV cleavage site, spacer, and the soluble form of TNF-alpha, SEQ ID NO: 14, on beads	increased signal over the baseline
